Measured values reported in patent US9981956B2, “Small molecule inhibitors of fibrosis” (THE CALIFORNIA INSTITUTE FOR BIOMEDICAL RESEARCH, priority 2013, dated 2018).
≈ marks a conversion by molar mass, not a printed value. Where “and” joins values, the source holds several entries; their conditions need not be identical. Identical values can stand only once. Like-named read-outs stand apart in the source and are kept apart here.

Legend:
[1] = system: Candida albicans (ATCC 10231); experiment: Candida albicans anti-fungal MIC potency determination; type: cell-based
Description: The wild type Candida albicans (ATCC 10231) was used and Fluconazole, amphotericin B, itraconazole and terbinafine were purchased from Sigma and used as positive controls.
The highest assay concentration for all test compounds and fluconazole was 100 μM. Fluconazole was also tested at the highest concentration of 64 μg/ml, and amphotercin B and terbinafine at 16 and 64 μg/ml. The test compounds were in DMSO stock solution at a concentration of 10 mM. Two stock solutions in DMSO were prepared for fluconazole at 10 mM and 6.4 mg/ml. Amphotericin B and terbinafine stock solutions in DMSO were prepared at 1.6 and 6.4 mg/ml.
Serial dilution of 100× stock solutions: 4 μl of stock solution was added into 196 μl of RPMI1640 (MOPS buffered and free of HEPES and sodium bicarbonate) in the first well of a row of a sterile u-bottom 96-well plate. The rest of the wells was filled with 100 μl RPMI1640. The 2-fold serial dilution was made sequentially by transferring 100 μl solution to the next well and mixing by pipetting, until 11th well. The extra 100 μl in 11th well was discarded. Therefore, the compound wells contained 100 μl of 2× of testing concentrations of drugs in RPMI1640. The 12th well was filled with only 100 μl RPMI1640.
C. albicans 3147 (ATCC 10231) glycerol frozen stock was streaked on Sabouraud dextrose agar (SDA). The plate was incubated at 35° C. ambient atmosphere for 20 h. Single colonies were suspended into sterile saline until turbidity reached 0.1 (1-5×10^6 CFU/ml) using a Siemens turbidity meter. This suspension was diluted 50× in RPMI1640 in a 15 ml conical, and then it was further diluted 20× in RPMI1640 in a 50 ml conical. This gave 1-5×10^3 CFU/ml suspension and was used as inoculum. The cell density in inoculum was plate-counted to be 4.94×10^3 CFU/ml.
The plates were incubated at 35° C. in ambient atmosphere. The photos were taken at 24 h and 48 h. The MIC end points for fluconazole and amphotericin B were read according to the M27-A3 protocol (Reference Method for Broth Dilution Antifungal Susceptibility Testing of Yeasts; Approved Standard-Third Edition, M27-A3 standard published Jan. 1, 2008 by Clinical and Laboratory Standards Institute). The MIC for compounds for test cmpds and terbinafine (not mentioned in M27-A3 protcol) were read as if they were azoles.

Cyp3A4 = Cyp3A4 (Homo sapiens, UniProt P08684); experiment: Cyp reversible inhibition assay (human liver microsomes)
Sequence of Cyp3A4 (P08684 whole entry): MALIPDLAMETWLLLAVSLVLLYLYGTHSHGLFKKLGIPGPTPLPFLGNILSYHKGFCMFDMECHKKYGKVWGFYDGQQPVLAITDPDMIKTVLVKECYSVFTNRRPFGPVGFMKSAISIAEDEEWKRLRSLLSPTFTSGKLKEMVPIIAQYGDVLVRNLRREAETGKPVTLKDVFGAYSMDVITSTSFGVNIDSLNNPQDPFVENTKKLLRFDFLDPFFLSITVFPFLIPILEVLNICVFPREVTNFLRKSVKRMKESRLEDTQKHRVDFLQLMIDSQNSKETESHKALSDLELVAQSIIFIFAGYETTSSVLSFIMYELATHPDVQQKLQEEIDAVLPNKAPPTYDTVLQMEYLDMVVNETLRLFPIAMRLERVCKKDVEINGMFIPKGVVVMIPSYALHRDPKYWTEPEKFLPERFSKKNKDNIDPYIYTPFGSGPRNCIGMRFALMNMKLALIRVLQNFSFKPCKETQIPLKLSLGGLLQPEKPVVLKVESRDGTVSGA
Description: The purpose of this assay was to determine reversible inhibition of Cyp enzyme with a given compound using a substrate probe turnover as the surrogate for inhibition. This was done with human liver microsomes rather an isolated enzyme to account for metabolites of parent drug leading to a potential drug-drug interaction through Cyp inhibition. The substrate turnover (for example conversion of midazolam to hydroxyl midazolam) was monitored by LCMSMS (Q1/Q2=342.2/203.2). Test compounds were tested in a 7-point dose response curve starting from 50 μM to 50 nM (˜3-fold dilution series).
The detailed protocol was as follows: • Prepared test compounds and standard inhibitors working solution (100×) • Pulled microsomes out of the −80° C. freezer to thaw on ice, labeled with the date and put back to freezer immediately after using. • Added 20 μL of the substrate solutions to corresponding wells. • Added 20 μL PB to Blank wells. • Added 2 μL of the test compounds and positive control working solution to corresponding wells. • Added 2 μL MeOH to No Inhibitor wells and Blank wells. • Prepared HLM working solution. • Added 158 μL of the HLM working solution to all wells of incubation plate. • Pre-warmed the plate for about 10 min at 37° C. water bath. • Prepared NADPH cofactor solution. • Added 20 μL NADPH cofactor to all incubation wells. • Mixed and incubated for 10 minutes at 37° C. water bath. • At the time point, terminated the reaction by adding 400 μL cold stop solution (200 ng/mL Tolbutamide in ACN). • Centrifuged the samples at 4000 rpm for 20 minutes to precipitate protein. • Transferred 200 μL supernatant to 200 μL HPLC water and shook for 10 min. • Analyzed samples by LC/MS/MS.

[2] = system: fibroblast to myofibroblast transdifferentiation (primary human lung fibroblasts and primary rodent HSCs); experiment: High content imaging and western based assay of fibroblast to myofibroblast transdifferentiation (α-SMA); type: cell-based; settings: graded, TGF-β induced fibroblast to myofibroblast transdifferentiation
Source text: A high content imaging assay, based on α-SMA staining and cell morphological changes associated with fibroblast to myofibroblast transdifferentiation, was established using primary human lung fibroblasts and primary rodent HSCs. Conditions, involving serum starvation and subsequent TGF-β treatment, were identified that facilitate robust in vitro transdifferentiation in a miniaturized (384 well plate) format that is amenable to high throughput small molecule screening. A selective ALK-5 TGF-β1 receptor inhibitor (SB-431542) was used as a positive control. […] This assay was used to identify a hit compound (itraconazole) and was used to evaluate focused panels of itraconazole analogues generated from medicinal chemistry efforts.
The activity of Itraconazole and its analogues was confirmed by analyzing changes in gene expression of multiple genes associated with fibroblast to myofibroblast transdifferentiation using biochemical methods (i.e., Western blot and RT-PCR). These 4-day assays were used to evaluate sets of 6 compounds at a time in 4-point dose response fashion.
After 24 hour incubation, cells were treated with the indicated doses of itraconazole for 48 hours in the presence of 10 ng/mL of TGF-β1 in hepatic stellate medium. Following fixation and staining with an anti smooth muscle actin antibody, cell morphology was analyzed with a Cellomics cell insight imaging reader (FIG. 1 for representative images). Cells were analyzed for mean cellular area of a-SMA staining (FIG. 5a) or mean fluorescence intensity of SMA staining (FIG. 5b).
After 24 incubation, medium was changed to assay medium containing TGF-β1 (10 ng/mL) and simultaneously treated with itraconazole (10 μM), SB431542 (10 μM) or vehicle control (FIG. 6).

[3] = ATCC10231, 24 h, read-out: C. Albicans MIC90 at 24 h
[4] = ATCC10231, 48 h, read-out: C. Albicans MIC90 at 48 h
[5] = Cyp 3A4 midazolam LCMS IC50, human liver microsomes, substrate midazolam
[6] = Cyp 3A4 testosterone LCMS IC50, human liver microsomes, substrate testosterone

SMILES	MIC90 [1, 3]	MIC90 [1, 4]	IC50 (Cyp3A4; [5])	IC50 (Cyp3A4; [6])	EC50 [2]
CCC(C)n1ncn(-c2ccc(N3CCN(c4ccc(OC[C@@H]5CO[C@@](Cn6ccnc6)(c6ccc(Cl)cc6Cl)O5)cc4)CC3)cc2)c1=O (stereo partly drawn) [Compound 19]	0.195 µM (≈ 0.137 µg/mL)	0.195 µM (≈ 0.137 µg/mL)	0.0031 µM	0.0069 µM	0.5 to 5 µM
CCC(C)n1ncn(-c2ccc(N3CCN(c4ccc(OC[C@@H]5CO[C@@](Cc6cncnc6)(c6ccc(Cl)cc6Cl)O5)cc4)CC3)cc2)c1=O (stereo partly drawn) [Compound 21]	> 100 µM	> 100 µM	0.144 µM	0.12 µM	0.5 to 5 µM
CCC(C)n1ncn(-c2ccc(N3CCN(c4ccc(OC[C@@H]5CO[C@@](Cc6cccnc6)(c6ccc(Cl)cc6Cl)O5)cc4)CC3)cc2)c1=O (stereo partly drawn) [Compound 26]	> 100 µM	> 100 µM	0.18 µM	0.283 µM	0.5 to 5 µM
CCC(C)n1ncn(-c2ccc(N3CCN(c4ccc(OC[C@@H]5CO[C@@](Cn6cccn6)(c6ccc(Cl)cc6Cl)O5)cc4)CC3)cc2)c1=O (stereo partly drawn) [Compound 27]	> 100 µM	> 100 µM	> 50 µM	> 50 µM	5 to 30 µM
CCC(C)n1ncn(-c2ccc(N3CCN(c4ccc(OC[C@@H]5CO[C@@](Cn6nccn6)(c6ccc(Cl)cc6Cl)O5)cc4F)CC3)cc2)c1=O (stereo partly drawn) [Compound 54]	> 100 µM	> 100 µM	> 50 µM	> 50 µM	< 0.5 µM
CCC(C)n1ncn(-c2ccc(N3CCN(c4ccc(OC[C@@H]5CO[C@@](Cc6ccnnc6)(c6ccccc6)O5)cc4)CC3)cc2)c1=O (stereo partly drawn) [Compound 84]	> 100 µM	> 100 µM	2.55 µM and 2.35 µM	1.77 µM	0.5 to 5 µM
CCC(C)n1ncn(-c2ccc(N3CCN(c4ccc(OC[C@@H]5CO[C@@](CCCn6cncn6)(c6ccc(Cl)cc6Cl)O5)cc4)CC3)cc2)c1=O (stereo partly drawn) [Compound 101]	> 100 µM	> 100 µM	–	–	5 to 30 µM

Now from value to compound, other results behind:

MIC90 [1, 3]	MIC90 [1, 4]	IC50 (Cyp3A4; [5])	IC50 (Cyp3A4; [6])	SMILES	EC50 [2]
> 100 µM	> 100 µM	0.321 µM	–	CCC(C)n1ncn(-c2ccc(N3CCN(c4ccc(OC[C@@H]5CO[C@@](Cc6ccncc6)(c6ccc(Cl)cc6Cl)O5)cc4)CC3)cc2)c1=O (stereo partly drawn) [Compound 23]	< 0.5 µM
> 100 µM	> 100 µM	> 50 µM	> 50 µM	CCC(C)n1ncn(-c2ccc(N3CCN(c4ccc(OC[C@@H]5CO[C@@](Cn6nccn6)(c6ccc(Cl)cc6)O5)cc4)CC3)cc2)c1=O (stereo partly drawn) [Compound 30]	0.5 to 5 µM
> 100 µM	> 100 µM	> 50 µM	> 50 µM	CCC(C)n1ncn(-c2ccc(N3CCN(c4ccc(OC[C@@H]5CO[C@@](Cn6nccn6)(c6ccccc6Cl)O5)cc4)CC3)cc2)c1=O (stereo partly drawn) [Compound 32]	5 to 30 µM
> 100 µM	> 100 µM	> 50 µM	> 50 µM	CCC(C)n1ncn(-c2ccc(N3CCN(c4ccc(OC[C@@H]5CO[C@@](Cn6nccn6)(c6ccc(Cl)c(Cl)c6)O5)cc4)CC3)cc2)c1=O (stereo partly drawn) [Compound 36]	5 to 30 µM
> 100 µM	> 100 µM	> 50 µM	> 50 µM	CCC(C)n1ncn(-c2ccc(N3CCN(c4ccc(OC[C@@H]5CO[C@@](Cn6nccn6)(c6ccccc6C)O5)cc4)CC3)cc2)c1=O (stereo partly drawn) [Compound 41]	0.5 to 5 µM
> 100 µM	> 100 µM	> 50 µM	> 50 µM	CCC(C)n1ncn(-c2ccc(N3CCN(c4ccc(OC[C@@H]5CO[C@@](Cn6nccn6)(c6ccc(Cl)cc6Cl)O5)c(F)c4)CC3)cc2)c1=O (stereo partly drawn) [Compound 49]	0.5 to 5 µM
> 100 µM	> 100 µM	> 50 µM	> 50 µM	CCC(C)n1ncn(-c2ccc(N3CCN(c4ccc(OC[C@@H]5CO[C@@](Cn6nccn6)(c6ccc(Cl)cc6Cl)O5)c(C#N)c4)CC3)cc2)c1=O (stereo partly drawn) [Compound 79]	0.5 to 5 µM
0.781 µM (≈ 0.562 µg/mL)	1.56 µM (≈ 1.12 µg/mL)	0.372 µM	0.545 µM	CCC(C)n1ncn(-c2ccc(N3CCN(c4ccc(OC[C@@H]5CO[C@@](CCn6cncn6)(c6ccc(Cl)cc6Cl)O5)cc4)CC3)cc2)c1=O (stereo partly drawn) [Compound 100]	< 0.5 µM
